From PubChem BioAssay AID434967 (Sanford-Burnham Center for Chemical Genomics, 2010)

Assay: HIV fusion inhibitor analogs, peptide binding, SAR follow-up, biochemical, fluorescence quenching (AID 434967)
Conditions: cell-free peptide binding, 30 min

CCOC(=O)c1sc(N2C(=O)C(O)=C(C(=O)c3ccc(C)o3)C2c2cccc([N+](=O)[O-])c2)nc1C (stereo not given)
IC50: 10.5 µM

COc1cc(C=NNc2ccc(Cl)c(C(=O)O)c2)ccc1OC(=O)c1ccc(F)cc1
IC50: 8.03 µM

O=C(O)c1cc(NN=Cc2ccc(-c3ccccc3)cc2)ccc1Cl
IC50: 14.8 µM

O=C(N/N=C/c1c(O)n(C2CCCCC2)c(=S)[nH]c1=O)c1ccccc1O
IC50: 9 µM

COc1cc(C=NNc2ccc(Cl)c(C(=O)O)c2)ccc1OC(=O)c1ccccc1F
IC50: 25.9 µM

CC(C)(C)c1cc(-c2csc(Nc3ccccc3)[n+]2Cc2ccc(C(=O)O)cc2)cc(C(C)(C)C)c1O
IC50: 27.3 µM

O=C(O)c1ccccc1N=Nc1c(O)[nH]c2ccc([N+](=O)[O-])cc12
IC50: 13.3 µM

N#C/C(=C\c1ccc(O)c([N+](=O)[O-])c1)c1nc2ccccc2s1
IC50: 6.25 µM

COc1ccc(C(=O)Oc2ccc(C=NNc3ccc(Cl)c(C(=O)O)c3)cc2OC)cc1
IC50: 5.16 µM

Cc1c2c(=O)n(-c3nc4ccccc4s3)nc-2cc(O)n1Cc1ccccc1
IC50: 10.1 µM
